According to publication PMC9381536, “Non-apoptotic cell death induction via sapogenin based supramolecular particles” (Scientific Reports, 2022):
pIC50: −log10 of the molar value.

Columns and labels:
HCC1937 cells [1] = assay: Cytotoxicity of 220 nm filtrates; format: cell-based
Experimental: Figure 1 AG-08 mediated cytotoxicity relies on the supramolecular structures. (A) Structure of AG-08. (B) The scanning transmission electron micrograph of 16 µM AG-08 in PBS. Figure is a representative image of stained sample with uranyl acetate (5683 × magnification; scale bar 600 nm). (C) After 3 h incubation of Nile red solution with AG-08 or AG, fluorescence intensity of Nile red was measured. (D) AG-08, Staurosporine (Sta) or vehicle samples prepared in the cell condition medium was filtrated by 220 nm filter and HCC1937 cells were exposed to the filtrates. After 24 h, the viability of cells was measured and represented as a percentage of that of the vehicle control. The error bars represent mean value ± s.d. (n = 3). *p < 0.05, **p < 0.005, ***p < 0.001. (E) Tween 20 (1:40,000) was added to the fresh medium before addition of 8 μM AG-08 or vehicle. Then cell medium was replaced with this fresh medium. Cell viability was detected after 24 h incubation. […] TEXT PRINTED IN THE PICTURE: (F) no label printed: Diameter: 153.2±4.6; polydispersity index: 0.218
To verify that the activity of AG-08 arises from its supramolecular structures, freshly prepared AG-08 solutions were filtered using 220 nm-filters to remove AG-08 supramolecular particles from medium, and the filtrates were analyzed for their cytotoxicity. […] Next, Tween-20 was utilized as a non-ionic detergent to block particle formation, and AG-08-mediated cell death was inhibited as expected (Fig. 1E). […]

HCC1937 cells [2] = assay: Cell viability with Tween 20 blocking particle formation; format: cell-based, Human; settings: HCC1937, 24 h
Experimental: Figure 1 AG-08 mediated cytotoxicity relies on the supramolecular structures. (A) Structure of AG-08. (B) The scanning transmission electron micrograph of 16 µM AG-08 in PBS. Figure is a representative image of stained sample with uranyl acetate (5683 × magnification; scale bar 600 nm). (C) After 3 h incubation of Nile red solution with AG-08 or AG, fluorescence intensity of Nile red was measured. (D) AG-08, Staurosporine (Sta) or vehicle samples prepared in the cell condition medium was filtrated by 220 nm filter and HCC1937 cells were exposed to the filtrates. After 24 h, the viability of cells was measured and represented as a percentage of that of the vehicle control. The error bars represent mean value ± s.d. (n = 3). *p < 0.05, **p < 0.005, ***p < 0.001. […] Cell viability was detected after 24 h incubation. […]
To verify that the activity of AG-08 arises from its supramolecular structures, freshly prepared AG-08 solutions were filtered using 220 nm-filters to remove AG-08 supramolecular particles from medium, and the filtrates were analyzed for their cytotoxicity. […]
Figure 5 The cytotoxic activity of analogs depends on particle formation like AG-08. […] The level of released LDH was calculated as fold change relative to vehicle. […] After 24 h, cell viability was measured. […] Cell viability after 24 h was measured. […]

A549 = tested on: A549; parameters: method as in PMID 33136369; settings: cited from earlier work

## Cc1ccc(S(=O)(=O)OC2CCC3(C)C4=CCC5(C)C(C6(C)CCC(C(C)(C)O)O6)C(O)CC5(C)C4C=CC3C2(C)C)cc1 (stereo not drawn) [AG-08]
HCC1937 cells [1]
  cytotoxicity of filtrate after 220 nm filtration: no longer exhibited any cytotoxicity
HCC1937 cells [2]
  cell death in presence of Tween 20 (1:40,000): inhibited
A549
  pIC50: 5.64
